In patent publication US20260209177A1, “1-DEOXYNOJIRIMYCIN DERIVATIVE AND USE THEREOF” (ZHEJIANG UNIVERSITY, priority 2022, published 2026):

Tests used:
HCM-iPSC-CMs = test: Patch clamp action potential of iPSC-CMs; type: cell-based, human; conditions: 30 μM, 48 hours, compared with DNJ-1, FIG. 21
Method: TrypLE was added into induced cardiomyocytes, and after digestion at 37° C. for 3 min, an RPMI complete culture medium was added. The cells were centrifuged at a low speed, resuspended with RPMI/B27, and inoculated into an 8 mm Matrigel-coated slide at a ratio of 1:10. The cells were placed in an environment with 5% of CO2 for culture at 37° C. At 16 hours after the inoculation, the culture medium was replaced with a fresh RPMI/B27 culture medium, 30 μM small molecule drugs were added in an experimental group, and DMSO of an equal volume was added in a control group. At 48 hours after the culture, the action potential of the cardiomyocytes was recorded. Cell slides were removed, placed in a constant-temperature patch clamp bath at 37° C., and continuously perfused and rinsed with an extracellular fluid. Cell membranes of the cardiomyocytes were sucked and broken at a negative pressure, and the action potential of the cells capable of spontaneously pulsating was recorded. Data were collected and analyzed through Patch Master (HEKA), Fit Master (HEKA), Igor Pro (Wavemetrics) and Origin 6.1 (Microcal) software.

[1] = system: C57BL/6J mice with Ang II-induced myocardial hypertrophy; test: Transmission electron microscopy of mitochondria in mouse heart tissue; type: in vivo; conditions: 10 mg/kg/d intraperitoneal, 4 weeks, TEM, FIG. 24
Method: (§1) Model construction was performed by adopting C57BL/6J wild-type mice with subcutaneous implantation and perfusion of angiotensin II (AngII)/normal saline (Saline) through an Alzet Osmotic Pump 2004. Relevant statistical results were obtained after continuous feeding, modeling and administration for 4 weeks.
(§2) Administration method: Intraperitoneal injection was adopted at a drug dose of 10 mg/kg/d, drugs were dissolved in a phosphate buffer solution (PBS) and administered twice a day in the morning and the evening, and a placebo group was given a phosphate buffer solution (PBS) of a same volume.
After mice were sacrificed, a small portion of left ventricular tissues were taken, and cardiac muscles were trimmed to achieve cubes with a size of 1 mm^3. According to arrangement directions of mitochondria in the cardiac muscle tissues, tissues were selected respectively along long axes and short axes of hearts, and samples for transmission electron microscopy were prepared subsequently. […]

[2] = system: C57BL/6J mice with Ang II-induced myocardial hypertrophy; test: Heart weight/body weight of Ang II mice; type: in vivo, mouse; conditions: 10 mg/kg/d intraperitoneal, 4 weeks, FIG. 23
Method: as §1, §2
After continuous feeding, modeling and administration for 4 weeks, indicators, such as body weight, of mice were measured before sampling, then the mice were deeply anesthetized with isoflurane, and the mice were sacrificed after completely losing the sense of pain. Hearts were obtained after the mice were sacrificed, and indicators, such as heart weight, were measured.
In histological analysis, the hearts of the mice were collected, cut along maximum cross sections, and fixed with 4% paraformaldehyde. Subsequently, paraffin embedding, sectioning and hematoxylin-eosin (HE) staining of the maximum cross sections were performed. […] The sections were scanned by a scanner (3DHISTECH), and obtained and measured through software slideviewer.

[3] = system: C57BL/6J mice with Ang II-induced myocardial hypertrophy; test: Cardiac ultrasonography of mice with Ang II-induced myocardial hypertrophy; type: in vivo, mouse; conditions: 10 mg/kg/d intraperitoneal, 4 weeks, FIG. 22
Method: as §1
Model construction: Weighing and anesthetization were performed, and skin preparation and disinfection were performed in surgical areas. A 1 cm incision above a scapula of a front leg was made by using surgical scissors, wherein the incision was perpendicular to a tail part. The skin was cut carefully without damaging underlying tissues, a subcutaneous tunnel was made under the skin by using hemostatic forceps, the pump with a regulator head was completely pushed into a pocket (pointing toward a tail end of each mouse), and the incision was sutured. […]
In the experiment, a Vinno 6LAB high-resolution ultrasonic detector for small animals was used for detection in a two-dimensional (2D) parasternal short-axis M mode. […] Each indicator was detected for 3-6 cardiac cycles, and a mean value of the measured cardiac cycles was calculated.

CC(C)(C)C(=O)OC[C@H]1NC[C@H](O)[C@@H](O)[C@@H]1O [DNJ-5a, ((2R,3R,4R,5S)-3,4,5-trihydroxypiperidin-2-yl)methyl pivalate]
proportion of electrophysiologically abnormal cells (action potential) (HCM-iPSC-CMs): improve the proportion of electrophysiologically abnormal cells in HCM-iPSC-CMs more significantly | mitochondrial ultrastructure of heart tissue (crista, vacuolation proportion) [1]: more significantly improve the ultrastructure of the mitochondrial crista and decrease a vacuolation proportion | heart weight/body weight [2]: better performance | cardiac ultrasonography parameters (EF, FS, LVPWd, LVPWs) [3]: better performance
